Bridge positions count the residues as written; N and C are the ends. Ends that are not written are not given here.
Tests used:
[1] = test system: BALB/c mice; test: Toxicity and movement activity after i.v. injection; conditions: for Movement Activities: BALB/c (around 20 gm) mice, i.v. single dose 75 μl of 1 mM, within 30 minutes; for toxicity by mouse movements: BALB/c mice, i.v. single dose 75 μl of 1 mM per mouse, movements within 30 minutes, observed up to one week
Method: To design a MTD peptide anti-cancer drug, the MTD peptide was fused to various known tumor-homing motifs through its N-terminal or C-terminal region, and a linker was introduced between these two motifs to impart flexibility and minimize steric hindrance (Figure 1A, Supplementary Table S1). The MTD peptides fused with tumor-homing motifs (hereafter designated TU:MTDs) were synthesized as linear or cyclic entities using L-amino acids (Supplementary Table S1), and were evaluated for their killing activity using CT26 cells in vitro (Supplementary Figure S1). […] Thus, BALB/c mouse movements were also evaluated within 30 minutes of the intravenous injection of a single dose of 75 μl of 1 mM TU:MTDs per mouse. […] We also searched for a TU:MTD with a potent in vivo effect by observing tumor volumes in three BALB/c mice bearing CT26 adenocarcinoma that were injected with 100 μl of 1 mM TU:MTDs per day for 2 or 3 consecutive days (Figure 1B). […] The tumor-homing motif of TU17:MTD has a “RPARPAR” sequence containing the C-end rule (CendR) element that has known to bind to neuropilin-1 (NRP-1), although the “RPARPAR” sequence is located at the N-terminus of the MTD rather than at the C-terminus. […]
1 mM) were i.v. injected into BALB/c (around 20 gm) mice at a single dose. “Slow” means not moving around in the cage.
“Normal” means normally moving around in the cage. “Toxic” means necrosis in tail vein within 2 ~ 3 days after injection.
Abbreviation: NR; no regression, ND; not determined. […]

[2] = test system: subcutaneous CT26 colorectal carcinoma tumors; test: Tumor volume in mice bearing subcutaneous CT26 tumors; type: in vivo; conditions: BALB/c mice bearing CT26 tumor, i.v. of 1 mM TU:MTDs twice or three times, n = 3, observed until 9 days
Method: Figure 1 Identification of TU17:MTD as a tumor targeting peptide (A) Schematic diagram of the fusion peptides consisting of the tumor-homing motif, linker, and mitochondrial targeting domain (MTD). (B) Tumors were generated over 2 weeks after s.c. injection of CT26 cells into the backs of BALB/c mice. […] Arrows indicate the points of peptide injection. P values < 0.02 (control group vs TU17:MTD at day 5, 6, 7, 8, and 9) (C) HCT116, HeLa, A549, MCF-7, PC3, and BJAB cells were treated with TU17:MTD (0 ~ 20 μM) for 30 minutes, and cell viability was monitored using XTT assays. *P < 0.05 (D) Primary splenocytes and macrophages were treated with TU17:MTD (0 ~ 20 μM) for 30 minutes, and cell viability was monitored by XTT assay. *P < 0.05 (E) CT26 cells were treated with R8:MTD, TU17:MTD, TU17-2:MTD or TU17:MTD^4A (0 ~ 40 μM) for 4 hours, and cell viability was monitored by XTT assay. Results in C to E are expressed as means ± SD (triplicates), and are representative of at least two independent experiments. P values are for experimental groups versus controls and were calculated using Dunnett's t-test. *P < 0.05.
Figure 3 Effects of TU17:MTD, TU17-2:MTD, and TU17-2:D(KLAKLAK)2 on tumor tissues in vivo (A) Tumors were generated over 7~8 days after s.c. injection of CT26 cells into the backs of BALB/c mice. […]

Sequence | Movement Activities [1] | toxicity by mouse movements [1] | Toxicity/Tumor growth [2]
CNGRCVSGCAGRCGGKLLNLISKLF [TU2:MTD, MTD peptide fused with tumor-homing motif, linear] | Normal | no apparent toxicities | NR (NR; no regression)
KLLNLISKLFCRGDKRLYDC (disulfide 11-20 (inferred)) [TU11:MTD] | Slow | toxic | Toxic
